According to patent US20080220416A1, “Compositions for Inhibiting Cell Growth and Inducing Apoptosis in Cancer Cells and Methods of Use Thereof” (THE BOARD OF TRUSTEES OF THE UNIVERSITY OF ILLINOI, priority 2004, published 2008):

Assays:
Format in all cases: cell-based, human
[1] = system: MDA-MB231 breast cancer cells; assay: Cytotoxicity and growth assay in MDA-MB231 breast cancer cells (SRB, TCA-precipitated protein); conditions: MDA-MB231; siRNA transfection
Method: An invasive, estrogen-independent breast cancer cell line that spontaneously expresses high levels of Notch-1 and -4, MDA-MB231, and normal human breast cells were used to investigate whether inhibition of Notch activation or expression affects the biological behavior of breast cancer cells. Human Mammary Epithelial Cells (HMEC) were purchased from Clonetics and cultured in mammary epithelial cell basal medium (MEBM) supplemented with 52 μg/ml Bovine Pituitary Extract […], […] human recombinant Epidermal Growth Factor (hEGF), 5 μg/ml insulin, 0.5 μg/ml Hydrocortisone, 50 μg/ml Gentamicin and 50 μg/ml Amphotericin-B. MDA-MB231 (ATCC, Rockville, Md.) were cultured in DMEM medium with 10% FBS. Notch expression in HMEC and MDA-MB231 cells was silenced using highly specific RNAi. Double-stranded synthetic 21-mer RNA oligonucleotides (siRNAs) were purchased from Dharmacon (Lafayette, Colo.). […] Sequence specificity was determined by BLAST searches which determined the uniqueness of the sequences. Transfection of siRNAs was performed using Oligofectamine (Invitrogen) as recommended by the siRNA manufacturer (Dharmacon). Transfection efficiency was optimized and followed on parallel wells using DNA double stranded oligos of identical sequence to the siRNAs, labeled with biotin on one strand. Transfected cells were identified by Streptavidin-horseradish peroxidase staining (Vectastain) and counted. Transfection efficiencies around 80% were routinely obtained.
Cytotoxicity and growth of transfected cells were estimated by a standard assay used for cancer drug screening, through the total amount of TCA-precipitated cell proteins after drug treatment (Likhitwitayawuid, K et al., 1993, J Nat Prod 56:30-38): 200 μl of cell suspension (10^5 cells/ml) were added to each well in a 96-well plate. After incubation at, 37° C., in 5% CO2 (30 minutes to 72 hours depending on the time course chosen), 50 μl 50% trichloroacetic acid was added to each well. After incubation at 4° C. for 1 hour, precipitates were washed with water 4-5 times and air dried overnight. One hundred μl of SRB solution (0.4% sulforhodamine B in 1% acetic acid, filtered before use) was added to each well for 30 minutes. Wells were washed with 1% acetic acid 4-5 times and air dried. Two hundred μl 10 mM Tris base was added to each well. Plates were shaken for 5-10 minutes and OD at 490 nm (OD490) was recorded via ELISA reader. To assay matrix invasion, 300 μl of cell suspension (10^6 cells/mL in serum-free medium) were added to invasion inserts (BioCoat Matrigel Invasion Chambers, Becton Dickinson, Bedford, Mass.) and incubated for 22 hours at 37° C., 5% CO2. […] After removal of the non-invading cells from the interior of the inserts, stained invading cells were lysed in 10% acetic acid and OD595 was determined. […]

[2] = system: MDA-MB231 breast cancer cells; assay: Extracellular matrix invasion of MDA-MB231 cells (Matrigel Invasion Chambers); conditions: siRNA transfection, 22 hours
Method: Cytotoxicity and growth of transfected cells were estimated by a standard assay used for cancer drug screening, through the total amount of TCA-precipitated cell proteins after drug treatment (Likhitwitayawuid, K et al., 1993, J Nat Prod 56:30-38): 200 μl of cell suspension (10^5 cells/ml) were added to each well in a 96-well plate. After incubation at, 37° C., in 5% CO2 (30 minutes to 72 hours depending on the time course chosen), 50 μl 50% trichloroacetic acid was added to each well. After incubation at 4° C. for 1 hour, precipitates were washed with water 4-5 times and air dried overnight. One hundred μl of SRB solution (0.4% sulforhodamine B in 1% acetic acid, filtered before use) was added to each well for 30 minutes. Wells were washed with 1% acetic acid 4-5 times and air dried. Two hundred μl 10 mM Tris base was added to each well. Plates were shaken for 5-10 minutes and OD at 490 nm (OD490) was recorded via ELISA reader. To assay matrix invasion, 300 μl of cell suspension (10^6 cells/mL in serum-free medium) were added to invasion inserts (BioCoat Matrigel Invasion Chambers, Becton Dickinson, Bedford, Mass.) and incubated for 22 hours at 37° C., 5% CO2. Cells were stained with 0.9% crystal violet in 10% ethanol for 20 minutes. Inserts were dipped in water several times and air dried. After removal of the non-invading cells from the interior of the inserts, stained invading cells were lysed in 10% acetic acid and OD595 was determined.
Notch silencing was confirmed by Western blot as described above in Example 15 using commercial goat polyclonal antibodies from Santa Cruz Biotechnology to Notch-1 (C-20, Cat# sc-6014 S). For the Western blot analyses, MDA-MB231 cells were treated with 25 μM IL-X for 48 h or with 0.5, 1 or 2 μM z-Leu-Leu-Nle-CHO for 24 h. Cytotoxicity and matrix invasion assays were performed as described above in Example 15. For the cytotoxicity assays, MDA-MB231 cells were treated with […] IL-X for up to 3 days or with 0-20 μM z-Leu-Leu-Nle-CHO for up to 4 days. […]

[3] = system: MDA-MB231 cells; assay: Cell cycle distribution of MDA-MB231 cells by flow cytometry; conditions: siRNA transfection
Method: Cell cycle analysis was performed to further study the effects of inhibition of Notch signaling in breast cancer cells. MDA-MB231 cells were treated overnight with 0-10 μM z-Leu-Leu-Nle-CHO prior to cell cycle distribution analysis by flow cytometry. Alternatively, MDA-MB231 cells were transfected with Notch-1, Notch-4 or control siRNA as described above in Example 15. For cell cycle distribution analysis by flow cytometry, z-Leu-Leu-Nle-CHO- or siRNA-treated cells (10^6) were pelleted and washed twice in PBS. Cells were then fixed in 80% methanol and stored at −20° C. until use. Fixed cells were pelleted and washed twice in PBS, and resuspended in 50 μl PI:PBS solution (50 μg/ml PI). After RNase A (100 μg/ml) treatment at 37° C. for an hour, cells were analyzed by flow cytometry using a FACScalibur instrument.

[4] = system: NOXA; assay: NOXA antisense oligonucleotide in z-Leu-Leu-Nle-CHO-treated melanoma cells (Western blot, sub-G0 DNA content); conditions: RJ002L
Text: The role of NOXA in z-Leu-Leu-Nle-CHO-mediated apoptosis of melanoma cells was further evaluated using RJ002L, C8161 and MUM2B melanoma cell lines containing antisense oligonucleotide targeting NOXA. The antisense oligonucleotides (ASO) included a NOXA targeted sequence (5′-TCAGTCTACTGATTTACTGG-3′) (SEQ ID NO: 2) and a control oligonucleotide (CO) (5′-CCTTCCCTGAAGGTTCCTCC-3′) (SEQ ID NO: 3). The ASO were purchased from ISIS Pharmaceuticals Inc. (Carlsbad, Calif.) as previously described by Qin J et al., 2004, Mol Cancer Ther 3:895-902. Melanoma cells were seeded at 2×10^5 cells into 6 well plates I day before transfection. Opti-MEM (InVitrogen) was pre-incubated for 30 minutes at room temperature using a ratio of 3 μM/mL lipofectamine per 100 nmol/L to produce a final oligonucleotide concentration of 50 nmol/L. Cells were washed with PBS and transfection mix (1 ml) was added. After 4 hrs of incubation, RPMI 1640 (1 mL) containing 20% fetal bovine serum and z-Leu-Leu-Nle-CHO (10 μM) was added to the cells and the cells were incubated for 24 hrs. The treated cells were analyzed for cell viability using APO TARGET Annexin V-FITC staining kits (Biosource), for cell cycle progression and by Western blot using NOXA, Bim, Bak and β-actin antibodies as described above.

[5] = system: NOXA; assay: NOXA antisense oligonucleotide pretreatment before proteasome inhibitors in melanoma cell lines; conditions: MG-132, lactacystin or bortezomib; three melanoma cell lines; 24 hrs
Text: To more definitively establish a role for NOXA in the proteasome inhibitor-induced apoptotic response, three different melanoma cell lines were pre-treated with an antisense oligonucleotides (ASO). The ASOs included a NOXA targeted sequence (5′-TCAGTCTACTGATTTACTGG-3′) (SEQ ID NO: 2) and a universal scrambled control oligonucleotide (5′-TTCTACCTCGCGCGATTTAC-3′) (SEQ ID NO: 4) (FIGS. 10A, 10B and 10C), or control oligonucleotide (CO) (5′-CCTTCCCTGAAGGTTCCTCC-3′) (SEQ ID NO: 3) (FIGS. 6B and 6D). All three ASO were provided by ISIS Pharmaceuticals Inc. (Carlsbad, Calif.) as previously described by Qin et al., 2004, Mol Cancer Ther. 3:895-902). Melanoma cells were seeded at 2×10^5 cells into 6 well plates 1 day before transfection. Opti-MEM (InVitrogen) was pre-incubated for 30 minutes at room temperature using a ratio of 3 μM/mL lipofectamine per 100 nmol/L to produce a final oligonucleotide concentration of […]. Cells were washed with PBS and transfection mix (1 ml) was added. […] The treated cells were analyzed for cell viability using APO TARGET Annexin V-FITC staining kits (Biosource) and by Western blot using NOXA and β-actin antibodies as described above.

[6] = system: CaSki cells; assay: LY411,575 combinations in CaSki cells, growth inhibition and isobologram analysis; conditions: in vitro
Method: To evaluate the possibility that inhibition of Notch signaling may sensitize advanced cervical cancers to the effect of cisplatin chemotherapy because Notch-1 protects these cells from apoptosis through the AKT and NF-κB pathways, a non-peptide, benzodiazepine gamma-secretase inhibitor, LY411,575 (Wong et al., 2004, J Biol. Chem. 279:12876-82) was tested in combination with a AKT inhibitor (AKT inhibitor I) or a proteasome inhibitor (MG-132) for effects on cell growth. The latter class of drugs is thought to act primarily by preventing NF-KB activation (Adams, J, 2002, Curr Opin Oncol 14:628-634; Richardson, P, 2003, Cancer Treat Rev 29 Suppl 1:33-39) caused by proteasome-mediated degradation of IκB.
To determine whether LY411,575 potentiates the effect of AKT inhibitor I or MG-132, CaSki cells were treated with (a) LY411,575 (6.25 μM to 50 μM) and AKT inhibitor 1 (0.5 μM to 75 μM), or (b) LY411,575 (1.5 μM to 200 μM) and MG-132 (0.05 μM to 0.2). Following the drug treatment, the cells were tested for growth inhibition as described above. LY411,575 was synthesized according to methods well known in the art (e.g., see WO-09828268, which is incorporated by reference), and AKT inhibitor I and MG-132 were purchased from Calbiochem.
The IC50 values of LY411,575 in the presence of various concentrations of AKT inhibitor I or MG-132 were measured. […]

Compound: 5′-AACCCTGTGCCAATGGAGGCA-3′ [Notch-4 siRNA]
- proliferation [1]: even stronger anti-proliferative effect in MDA-MB231 cells than Notch-1 silencing
- extracellular matrix invasion [2]: significantly inhibited extracellular matrix invasion
- cell cycle distribution [3]: accumulation of cells in G2/M was maximal at 24 hours

Compound: 5′-TCAGTCTACTGATTTACTGG-3′ (antisense TCAGTCTACTGATTTACTGG; listed as DNA, chemistry not given here) [NOXA ASO]
- effect on z-Leu-Leu-Nle-CHO mediated apoptosis (sub-G0 DNA content) ([4]; C8161, MUM2B, p<0.01 versus control oligonucleotide): significantly reduced z-Leu-Leu-Nle-CHO mediated apoptosis
- effect on z-Leu-Leu-Nle-CHO induction of NOXA, Bim, Bak ([4]; 50 nmol/L oligonucleotide): blocked induction of NOXA, but not Bim or Bak
- reduction of proteasome inhibitor-induced apoptotic response [5]: 30-50%

Compound: C[C@H](NC(=O)[C@@H](O)c1cc(F)cc(F)c1)C(=O)N[C@@H]1C(=O)N(C)c2ccccc2-c2ccccc21 [LY411,575]
- potency relative to z-Leu-Leu-Nle-CHO [6]: less potent than z-Leu-Leu-Nle-CHO in vitro
